Patent US8791144B2, “Substituted N-phenyl-1-(4-Pyridinyl)-1H-pyrazol-3-amines” (Janssen Pharmaceutica NV, priority 2009, dated 2014)

Assays:
[1] = target: T1, hα7-wt nAChR (Homo sapiens, UniProt P36544); test: Ca2+ flux imaging (FDSS): potentiation of the choline response; format: cell-based; conditions: Ca2+ assay as described in D.1, potentiation of choline response, hα7-wt nAChR; for EC50: read-out: Potency (pEC50) (converted)
How it was run: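 Cells expressing human α7-wt nAChR loaded with fluo-4AM (2 μM final) up to 120 min; HBSS/10 mM HEPES/5 mM CaCl2/0.1% BSA buffer. Compound (0.01–30 μM) applied up to 10 min before 100 μM choline; peak fluorescence measured on FDSS relative to choline alone (100%). EC50 from sigmoidal curves.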

[2] = target: T1, hα7-wt nAChR; test: Patch-clamp current recording (whole-cell voltage clamp), potentiation of choline current and PAM type; format: cell-based; set-up: key: Type 0 compounds minimally enhance the effect size of the current elicited by 1 mM choline.; Type 1 compounds enhance the effect size of the current elicited by 1 mM choline but minimally alter the kinetics of the receptor.; Type 2 compounds enhance the effect size of the current elicited by 1 mM choline while reducing the rate and/or the extent of desensitization.; Type 3 compounds enhance the effect size of the current elicited by 1 mM choline. When tested at higher concentrations up to 10 μM they completely inhibit desensitization, in particular a 1 mM choline application of 250 milliseconds.; Type 4 compounds allow for an initial desensitization of the receptor followed by a re-opening of the receptor during agonist application; conditions: hα7-wt nAChR-expressing GH4C1 cells, 1 mM choline
Procedure: The compounds of the present invention are classified as type 0-4, based on qualitative kinetic properties, as determined by whole-cell voltage-clamp recordings. This classification is based on the effect of an α7 PAM compound, as described hereinbefore, on the signal elicited by an agonist application. In particular, said agonist is choline at a concentration of 1 mM. In a preferred experimental setting, said α7 PAM compound and choline are simultaneously applied to the cell, as described hereinafter. Desensitization is defined as the closure of the receptor upon activation during the application of the agonist in whole-cell voltage-clamp electrophysiology measurements seen as the reduction of the […] current after initial activation by the agonist.
The definition of the PAM types 0-4 is described hereinafter: • Type 0 compounds minimally enhance the effect size of the current elicited by 1 mM choline. • Type 1 compounds enhance the effect size of the current elicited by 1 mM choline but minimally alter the kinetics of the receptor. In particular, the rate and the extent of desensitization, elicited by the agonist, is not affected. The compound-modulated response to 1 mM choline, therefore, is a close to linear scaling of the 1 mM choline response in absence of the α7 PAM compound. • Type 2 compounds enhance the effect size of the current elicited by 1 mM choline while reducing the rate and/or the extent of desensitization. • Type 3 compounds enhance the effect size of the current elicited by 1 mM choline. […] At low-potency concentrations of the α7 PAM compound, the agonist-induced activation, which is followed by desensitization, can still be separated from the compound-induced re-opening as an initial inward current-maximum. At higher potency concentrations of the α7 PAM compound, the re-opening occurs faster than the closure due to desensitization so that the initial current-maximum disappears.
A compound was considered to have interesting PAM-like activity when the potentiation of the peak current was at least 200% compared to the control choline response (=100%). Such compounds are classified as belonging to a particular PAM type in the Experimental Part. Compounds not meeting the condition are not classified as belonging to a particular PAM-type.
The compounds also have a potentiating effect on the response to choline when measured by whole-cell patch clamp electrophysiology in GH4C1 cells stably over-expressing the human wild-type α7 receptor.
Patch-clamp recording from mammalian cells has provided a powerful means of assessing the function of membrane-bound proteins thought to be subunits of ligand-gated ion channels. Activation of such proteins by endogenous or exogenous ligands cause opening of a pore associated with the receptor through which ions flow down their electrochemical gradient. In the case of the hα7-wt nAChR-expressing GH4C1 recombinant cell line the preferential permeability to calcium of this receptor means that calcium flows into the cell upon activation by ACh, choline and other nicotinic ligands giving rise to a calcium current. Since this receptor rapidly desensitizes in the presence of agonist it is important an application system is used which is capable of very rapid switching of solutions (<100 ms) to prevent partial or full desensitisation of receptor responses coincident with the time of agonist application. Consequently, a second convenient technique to assess the enhancement of nicotinic efficacy is patch-clamp recording from hα7-wt nAChR-expressing GH4C1 cells coupled with a rapid-application system.
• a) Assay Buffers • The external recording solution consisted of 152 mM NaCl, 5 mM KCl, 1 mM MgCl2, 1 mM Calcium, 10 mM HEPES; pH 7.3. […]

T1 sequence (P36544 23-502): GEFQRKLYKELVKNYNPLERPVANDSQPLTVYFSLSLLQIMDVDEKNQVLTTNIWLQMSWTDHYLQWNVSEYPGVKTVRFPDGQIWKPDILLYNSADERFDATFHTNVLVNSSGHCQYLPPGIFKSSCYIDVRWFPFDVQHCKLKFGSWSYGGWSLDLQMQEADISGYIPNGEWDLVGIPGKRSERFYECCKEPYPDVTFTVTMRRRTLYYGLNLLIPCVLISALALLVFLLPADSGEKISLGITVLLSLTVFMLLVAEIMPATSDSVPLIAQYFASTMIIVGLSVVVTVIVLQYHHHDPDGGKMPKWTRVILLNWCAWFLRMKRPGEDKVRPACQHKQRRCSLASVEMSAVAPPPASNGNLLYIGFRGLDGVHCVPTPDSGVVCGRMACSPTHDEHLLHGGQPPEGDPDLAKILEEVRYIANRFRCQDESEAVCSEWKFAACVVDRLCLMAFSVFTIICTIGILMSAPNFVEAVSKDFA

Row | EC50 [1] [nM] | melting point [°C] | Emax ([1]; read-out: % Efficacy) [%] | SMILES | PAM type [2]
1 | 219 | 207.5 |  | Cc1cc(-n2nc(Nc3cccc(C(F)(F)F)c3)cc2CC(=O)NCC2CC2)ccn1 [Compound 47, N-(cyclopropylmethyl)-1-(2-methyl-4-pyridinyl)-3-[[3-(trifluoromethyl)phenyl]amino]-1H-pyrazole-5-acetamide] | 4
2 | 692 | 170 |  | CC[C@@H](O)Cc1cc(Nc2cccc(C(F)(F)F)c2)nn1-c1ccnc(C)c1 [Compound 35, (alphaR)-alpha-ethyl-1-(2-methyl-4-pyridinyl)-3-[[3-(trifluoromethyl)phenyl]amino]-1H-pyrazole-5-ethanol] | 2
3 | 2290 | 231.5 | 822 | CNC(=O)Cc1cc(Nc2cccc(OC(F)(F)F)c2)nn1-c1ccnc(C)c1 [Compound 111, N-methyl-1-(2-methyl-4-pyridinyl)-3-[[3-(trifluoromethoxy)phenyl]amino]-1H-pyrazole-5-acetamide] | 2
4 | 1700 | 138.3 |  | CC[C@H](O)Cc1cc(Nc2ccc3c(c2)OC(F)(F)O3)nn1-c1ccnc(C)c1 [Compound 93, (alphaS)-3-[(2,2-difluoro-1,3-benzodioxol-5-yl)amino]-alpha-ethyl-1-(2-methyl-4-pyridinyl)-1H-pyrazole-5-ethanol] | 2
5 | 832 | 164.7 |  | CC[C@@H](O)Cc1cc(Nc2ccc(F)c(F)c2)nn1-c1ccnc(C)c1 [Compound 10, (alphaR)-3-[(3,4-difluorophenyl)amino]-alpha-ethyl-1-(2-methyl-4-pyridinyl)-1H-pyrazole-5-ethanol] | 2
6 | 1200 | 224.6 |  | Cc1cc(-n2nc(Nc3cccc(OC(F)(F)F)c3)cc2CC(=O)NC2CC2)ccn1 [Compound 117, N-cyclopropyl-1-(2-methyl-4-pyridinyl)-3-[[3-(trifluoromethoxy)phenyl]amino]-1H-pyrazole-5-acetamide] | 3
7 | 794 | 125.3 |  | CC[C@H](O)Cc1cc(Nc2cc(Cl)cc(OC)c2)nn1-c1ccnc(C)c1 [Compound 61, (alphaS)-3-[(3-chloro-5-methoxyphenyl)amino]-alpha-ethyl-1-(2-methyl-4-pyridinyl)-1H-pyrazole-5-ethanol] | 2
8 | 2510 | 168.2 |  | CC[C@H](O)Cc1cc(Nc2cccc(Cl)c2F)nn1-c1ccnc(C)c1 [Compound 58, (alphaS)-3-[(3-chloro-2-fluorophenyl)amino]-alpha-ethyl-1-(2-methyl-4-pyridinyl)-1H-pyrazole-5-ethanol] | 1
9 | 2290 | 169.5 |  | CC[C@H](O)Cc1cc(Nc2cccc(C(F)(F)F)c2)nn1-c1ccnc(C)c1 [Compound 37, (alphaS)-alpha-ethyl-1-(2-methyl-4-pyridinyl)-3-[[3-(trifluoromethyl)phenyl]amino]-1H-pyrazole-5-ethanol] | 2

Further lines, the compound ahead of its results:

Row | SMILES | EC50 [1] [nM] | melting point [°C] | Emax ([1]; read-out: % Efficacy) [%] | PAM type [2]
10 | CNC(=O)Cc1cc(Nc2cc(Cl)cc(OC)c2)nn1-c1ccnc(C)c1 [Compound 72, 3-[(3-chloro-5-methoxyphenyl)amino]-N-methyl-1-(2-methyl-4-pyridinyl)-1H-pyrazole-5-acetamide] | 1820 | 215 |  | 3
11 | Cc1cc(-n2nc(Nc3cccc(OC(F)(F)F)c3)cc2CC(=O)NC2CC2)cc(C)n1 [Compound 118, N-cyclopropyl-1-(2,6-dimethyl-4-pyridinyl)-3-[[3-(trifluoromethoxy)phenyl]amino]-1H-pyrazole-5-acetamide] | 324 | 230.8 |  | 2
12 | Cc1cc(-n2nc(Nc3ccc(F)c(F)c3)cc2CC(=O)NCC2CC2)ccn1 [Compound 29, N-(cyclopropylmethyl)-3-[(3,4-difluorophenyl)amino]-1-(2-methyl-4-pyridinyl)-1H-pyrazole-5-acetamide] | 692 | 230.3 |  | 2
13 | COc1cc(Nc2cc(CC(=O)NC3CCC3)n(-c3ccnc(C)c3)n2)cc(C(F)(F)F)c1 [Compound 48, N-cyclobutyl-3-[[3-methoxy-5-(trifluoromethyl)phenyl]amino]-1-(2-methyl-4-pyridinyl)-1H-pyrazole-5-acetamide] | 79.4 | 249.2 |  | 4
14 | Cc1cc(-n2nc(Nc3ccc4c(c3)OC(F)(F)O4)cc2CCCO)ccn1 [Compound 92, 3-[(2,2-difluoro-1,3-benzodioxol-5-yl)amino]-1-(2-methyl-4-pyridinyl)-1H-pyrazole-5-propanol] | 2340 | 163.3 |  | 2
15 | Cc1cc(-n2nc(Nc3cccc(Cl)c3F)cc2CC(=O)NCC2CC2)ccn1 [Compound 79, 3-[(3-chloro-2-fluorophenyl)amino]-N-(cyclopropylmethyl)-1-(2-methyl-4-pyridinyl)-1H-pyrazole-5-acetamide] | 302 | 220.5 |  | 4
16 | Cc1cc(-n2nc(Nc3ccc4c(c3)OC(F)(F)O4)cc2CC(=O)NCC2CC2)ccn1 [Compound 101, N-(cyclopropylmethyl)-3-[(2,2-difluoro-1,3-benzodioxol-5-yl)amino]-1-(2-methyl-4-pyridinyl)-1H-pyrazole-5-acetamide] | 603 | 232.3 |  | 2
17 | CCNC(=O)Cc1cc(Nc2cccc(Cl)c2F)nn1-c1ccnc(C)c1 [Compound 73, 3-[(3-chloro-2-fluorophenyl)amino]-N-ethyl-1-(2-methyl-4-pyridinyl)-1H-pyrazole-5-acetamide] | 1260 | 205.1 |  | 3
18 | CNC(=O)Cc1cc(Nc2cccc(Cl)c2F)nn1-c1ccnc(C)c1 [Compound 71, 3-[(3-chloro-2-fluorophenyl)amino]-N-methyl-1-(2-methyl-4-pyridinyl)-1H-pyrazole-5-acetamide] | 2240 | 229.7 |  | 2
19 | Cc1cc(-n2nc(Nc3cccc(OC(F)(F)F)c3)cc2CC(=O)NC2CCC2)ccn1 [Compound 121, N-cyclobutyl-1-(2-methyl-4-pyridinyl)-3-[[3-(trifluoromethoxy)phenyl]amino]-1H-pyrazole-5-acetamide] | 417 | 227.7 |  | 2
20 | COc1cc(Nc2cc(CC(=O)NC3CC3)n(-c3ccnc(C)c3)n2)cc(C(F)(F)F)c1 [Compound 46, N-cyclopropyl-3-[[3-methoxy-5-(trifluoromethyl)phenyl]amino]-1-(2-methyl-4-pyridinyl)-1H-pyrazole-5-acetamide] | 234 | 251.3 |  | 4
